Test results as given in patent publication US20250019387A1 (Frontier Medicines Corporation, priority 0001, published 2025).

Target: KRAS G12C and cRAF (Ras-binding domain) interaction (Homo sapiens (Human), UniProt P01116, C118S/C51S/C80L/G12C)
Experiment: Inhibition of KRAS G12C and cRAF binding (AlphaScreen)
Conditions: GMPPNP-loaded KRAS G12C, 19-20 hours incubation with compound; read-out: IC50 (Inhibition of KRAS G12C and cRAF Binding)
Procedure, shortened: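 IC50 values come from 4-parameter nonlinear regression of AlphaScreen signal (680 nm excitation, 570 nm emission). Compound plates sat 19-20 h at room temperature before RBD and donor/acceptor beads were added in Hepes pH 7.4 buffer with 150 mM NaCl, 5 mM MgCl2, 2% DMSO for 60-90 min; biotin-AviTag-GST replaced RBD to flag assay-technology interferers.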

KRAS G12C and cRAF (Ras-binding domain) interaction, sequence (P01116 other isoform, or with tags, fused parts or gaps G12C/C51S/C80L/C118S): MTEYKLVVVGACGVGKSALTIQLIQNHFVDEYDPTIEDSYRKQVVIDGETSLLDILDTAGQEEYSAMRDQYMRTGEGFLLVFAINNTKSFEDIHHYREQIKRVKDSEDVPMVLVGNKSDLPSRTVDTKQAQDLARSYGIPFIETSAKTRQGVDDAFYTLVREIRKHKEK

IC50 [nM] | Compound
10 to 100 | Cc1ncc(F)c(/C=C/C(=O)N2CC[C@@H](N(C)c3nc(OC[C@@]45CCCN4C[C@H](F)C5)nc4c(F)c(-c5cccc6ccc(F)c(F)c56)ncc34)C2)n1 [Example 295, (E)-1-((R)-3-((7-(7,8-difluoronaphthalen-1-yl)-8-fluoro-2-(((2R,7aS)-2-fluorotetrahydro-1H-pyrrolizin-7a(5H)-yl)methoxy)pyrido[4,3-d]pyrimidin-4-yl)(methyl)amino)pyrrolidin-1-yl)-3-(5-fluoro-2-methylpyrimidin-4-yl)prop-2-en-1-one]
10 to 100 | CN1CC(=CC(=O)N2CC[C@@H](N(C)c3nc(OC[C@@]45CCCN4C[C@H](F)C5)nc4c(F)c(-c5cccc6ccc(F)c(Cl)c56)ncc34)C2)C1 [Example 300, 1-((R)-3-((7-(8-chloro-7-fluoronaphthalen-1-yl)-8-fluoro-2-(((2R,7aS)-2-fluorotetrahydro-1H-pyrrolizin-7a(5H)-yl)methoxy)pyrido[4,3-d]pyrimidin-4-yl)(methyl)amino)pyrrolidin-1-yl)-2-(1-methylazetidin-3-ylidene)ethan-1-one]
10 to 100 | C#Cc1c(F)ccc2cccc(-c3ncc4c(N(C)[C@@H]5CCN(C(=O)/C=C/CN6CC[C@H](OC)C6)C5)nc(OC[C@@]56CCCN5C[C@H](F)C6)nc4c3F)c12 [Example 286, (E)-1-((R)-3-((7-(8-ethynyl-7-fluoronaphthalen-1-yl)-8-fluoro-2-(((2R,7aS)-2-fluorotetrahydro-1H-pyrrolizin-7a(5H)-yl)methoxy)pyrido[4,3-d]pyrimidin-4-yl)(methyl)amino)pyrrolidin-1-yl)-4-((S)-3-methoxypyrrolidin-1-yl)but-2-en-1-one]
10 to 100 | CN(c1nc(OC[C@@]23CCCN2C[C@H](F)C3)nc2c(F)c(-c3cccc4cccc(Cl)c34)ncc12)[C@@H]1CCN(C(=O)/C=C/[C@H]2CCN2CCO)C1 [Example 233, (E)-1-((R)-3-((7-(8-chloronaphthalen-1-yl)-8-fluoro-2-(((2R,7aS)-2-fluorotetrahydro-1H-pyrrolizin-7a(5H)-yl)methoxy)pyrido[4,3-d]pyrimidin-4-yl)(methyl)amino)pyrrolidin-1-yl)-3-((R)-1-(2-hydroxyethyl)azetidin-2-yl)prop-2-en-1-one]

Further lines, the compound ahead of its results:

Compound | IC50 [nM]
CN(c1nc(OC[C@@H]2CCCN2C)nc2c1CCN(c1cccc3cccc(Cl)c13)C2)C1CCN(C(=O)/C=C/C(=O)O)C1 (stereo partly drawn) [Example 8, (E)-4-(3-((7-(8-chloronaphthalen-1-yl)-2-(((S)-1-methylpyrrolidin-2-yl)methoxy)-5,6,7,8-tetrahydropyrido[3,4-d]pyrimidin-4-yl)(methyl)amino)pyrrolidin-1-yl)-4-oxobut-2-enoic acid] | 100 to 500
CN(c1nc(OC[C@@]23CCCN2C[C@H](F)C3)nc2c1CCN(c1cccc3cccc(Cl)c13)C2)[C@@H]1CCN(C(=O)/C=C/c2nc(C3CC3)no2)C1 [Example 120, (E)-1-((R)-3-((7-(8-chloronaphthalen-1-yl)-2-(((2R,7aS)-2-fluorohexahydro-1H-pyrrolizin-7a-yl)methoxy)-5,6,7,8-tetrahydropyrido[3,4-d]pyrimidin-4-yl)(methyl)amino)pyrrolidin-1-yl)-3-(3-cyclopropyl-1,2,4-oxadiazol-5-yl)prop-2-en-1-one] | 10 to 100

Same assay, conditions: additional exemplary compounds; KRAS G12C and cRAF binding; read-out: RAF1 RBD IC50

IC50 [nM] | Compound
> 500 | CN(c1nc(OC[C@@]23CCCN2C[C@H](F)C3)nc2c1CCN(c1cccc3cccc(Cl)c13)C2)[C@@H]1CCN(C(=O)/C=C/c2ccncn2)C1
> 500 | Cc1nccc(/C=C/C(=O)N2CC3(C2)CN(c2nc(OC[C@@]45CCCN4C[C@H](F)C5)nc4c(F)c(-c5cccc6cccc(Cl)c56)ncc24)C3)n1
> 500 | C=CC(=O)N1CC[C@@H](N(C)c2nc(OC[C@@]34CCCN3C[C@@H](F)C4)nc3c(F)c(-c4cccc5cccc(Cl)c45)ncc23)C1
> 500 | Cc1nsc(/C=C/C(=O)N2C[C@@H](F)[C@H](N(C)c3nc(OC[C@@]45CCCN4C[C@H](F)C5)nc4c(F)c(-c5cccc6cccc(Cl)c56)ncc34)C2)n1
100 to 500 | C=CC(=O)N1CC(CN(C)c2nc(OCC34CCCN3CCC4)nc3c2CCN(c2cccc4cccc(Cl)c24)C3)C1
